Laboratory results as given in article PMC10142028, “Influence of Molecular Structure and Physicochemical Properties of Immunosuppressive Drugs on Micelle Formulation Characteristics and Cutaneous Delivery” (Pharmaceutics, 2023).
Converted amounts (≈) assume the structure as drawn. “Also recorded” adds a separate entry of the source. Like-named read-outs stand apart in the source and are kept apart here.

Experiments:
[1] = Drug solubility in water and in aqueous solution of TPGS; type: physicochemical; conditions: for Improvement of drug water solubility by addition of 50 mg/mL TPGS: TPGS 50 mg/mL solution vs water; for solubility at 24 h: thermodynamic from solid; for Aqueous solubility: in words, measured experimentally
Experimental: The solutions were kept at room temperature during a 24 h period of stirring. The samples were then centrifuged and the supernatant was collected and diluted in ACN prior to a UHPLC-MS/MS analysis. All the samples were prepared in triplicate.

[2] = Drug content determination of micelle formulations (UHPLC-UV); type: physicochemical; conditions: for Drug content of Formulation 5: Formulation 5, corresponds to approximately 2.3 mg/mL; for Water solubility reached by polymeric micelle formulation: corresponding to approximately 4.5 mg/mL
Experimental: Micelle formulations were prepared using the thin-film hydration method. […] The acetone was slowly removed by rotary evaporation (Büchi Vac V-513 Rotavapor®; Flawil, Switzerland) until the formation of a uniform thin-film, which was left under the hood overnight and then hydrated with 4 mL of ultrapure water. After equilibration for 2 h, the micelle solution was centrifuged at 10,000 rpm for 15 min (Eppendorf Centrifuge 5804; Hamburg, Germany) to remove excess drug, and the supernatant was carefully collected.
The micelle formulation was optimized in order to reach a high drug loading. […] The formulation with the highest drug content, which satisfied reproducibility and stability criteria, was chosen for the subsequent in vitro release and skin delivery studies. Drug loading was determined by UHPLC-UV.
The amount of drug loaded in the micelles was quantified by UHPLC-UV. To ensure the complete destruction of the micelles and the release of encapsulated drug, samples were diluted in ACN prior to analysis. (1) Drug contentmgdrug/mLformulation=mass of drug in the formulationmg/volume of the formulationmL (2) Drug loadingmgdrug/gpolymer=drug in the formulationmg mL^−1/copolymer in the formulationg mL^−1 (3) Incorporation efficiency%=mass of drug incorporated in micellesmg/mass of drug introducedmg×100

[3] = Stability of the micelle solution after storage at 4 °C for 5 months; type: physicochemical; conditions: Formulation 6 (target 5 mg/mL), followed for 5 months
Experimental: Stability of the micelle solution was evaluated after storage at 4 °C for 5 months. Drug content and micelle size were determined at a series of time points (day 1, and then after 1, 2, 3, 4, and 5 months).

skin (porcine or human) = test system: skin (porcine or human); parameters: method as in PMID 16176283, PMID 14698574; conditions: independent of skin origin (porcine or human) and formulation composition; cited from earlier work
skin proteins = test system: skin proteins; parameters: method as in PMID 18524871; conditions: compared to TAC; cited from earlier work
[4] = source not given; cited from earlier work
Porcine ear skin [5] = experiment: Skin delivery in vitro under infinite dose conditions and cutaneous biodistribution (Franz diffusion cells); conditions: micelle solution 0.2%, 12 h; for Drug deposition in skin regions (comparison): porcine skin; for Permeation across the skin (concentration, under the limit of quantification): receptor phase
Experimental: (§1) Porcine ear skin was used for skin delivery studies and was supplied by a local abattoir (CARRE; Rolle, CH). Briefly, skin samples were processed with a Zimmer air dermatome (Münsingen, Switzerland) to obtain pieces with a thickness of ∼800 µm. Hair was removed carefully from the skin surface using clippers. Circular disks of 30 mm were then punched out (Berg & Schmid HK 500; Urdorf, Switzerland) and stored at −20 °C until use, for a maximum period of 3 months.
(§2) Porcine skin samples were mounted in Franz diffusion cells (Milian SA; Meyrin, Switzerland) with a formulation contact area of 2 cm^2. In the donor compartment, the optimal micelle solution 0.2% was applied under infinite dose conditions (500 µL/cm^2) during 12 h. The receptor compartment was filled with 10 mL of phosphate buffered saline at pH 7.4 containing 1% BSA. The receiver phase was stirred at 250 rpm and maintained at 32 °C throughout the experiment. […] After the experiment, 1 mL of this phase was withdrawn to quantify drug permeation. Samples were diluted in ACN to precipitate BSA. After centrifugation at 5000 rpm at 4 °C during 15 min, the permeation samples were analysed by UHPLC-MS/MS. Each skin sample was carefully cleaned with a cotton swab and a wash solution to remove the residual formulation from skin surface.
(§3) At the end of the experiment, a small area, 0.8 cm^2, was punched out from the 2 cm^2 skin samples. These skin discs were snap-frozen in isopentane cooled by liquid nitrogen, followed by cryotoming (Thermo Scientific CryoStarTM NX70; Reinach, Switzerland) to obtain two lamellae with a thickness of 20 µm and 19 lamellae with a thickness of 40 μm. […] Drug deposited in each lamella was extracted in 300 µL of ACN overnight with continuous stirring at room temperature. The extraction samples were centrifuged at 5000 rpm for 10 min and diluted prior to UHPLC-MS/MS analysis.

Porcine ear skin [6] = conditions: pig, 12 h, 0.2 %, pH 7.4
Experimental: as §1, §2, §3

[7] = aqueous solution of TPGS (50 mg/mL), aqueous with cosolvent or surfactant or cyclodextrin, Drug solubility at TPGS concentration (33 mM or 50 mg/mL), room temperature, 24 h
[8] = aqueous solution of TPGS (50 mg/mL), aqueous with cosolvent or surfactant or cyclodextrin, Solubility on simple addition of the drug in the aqueous solution of TPGS, TPGS 50 mg/mL
[9] = water, water, room temperature, 24 h stirring, read-out: Drug solubility in water

Solubility on simple addition of the drug in the aqueous solution of TPGS ([1]; TPGS 50 mg/mL) [µM] | Permeation across the skin (concentration, under the limit of quantification) (Porcine ear skin [6]) [ng/mL] | SMILES | Improvement of drug water solubility by addition of 50 mg/mL TPGS [1] [fold] | solubility at 24 h [1, 7] [µM] | solubility at 24 h [1, 8] [µM] | Aqueous solubility [1] | solubility at 24 h [1, 9] [µM] | Drug content of Formulation 5 [2] [mM] | Water solubility reached by polymeric micelle formulation [2] [µM] | Stability of Formulation 6 in terms of drug content [3] | Permeation across the skin (comparison) (skin (porcine or human)) | Affinity/binding to skin components (comparison) (skin proteins) | Ionizable [4] | Drug deposition in skin regions (comparison) (Porcine ear skin [5]) | Permeation across the skin (concentration, under the limit of quantification) (Porcine ear skin [5]) [ng/mL]
– | – | CC[C@@H]1/C=C(\C)C[C@H](C)C[C@H](OC)[C@H]2O[C@@](O)(C(=O)C(=O)N3CCCC[C@H]3C(=O)O[C@H](/C(C)=C/[C@@H]3CC[C@H](Cl)[C@H](OC)C3)[C@H](C)[C@@H](O)CC1=O)[C@H](C)C[C@@H]2OC [PIM, pimecrolimus] | 1943 | 330 ± 31.2 (≈ 268 µg/mL) | 300 (≈ 243 µg/mL) | Poor | 0.17 ± 0.02 (≈ 0.138 µg/mL) | 2.8 | 5600 | remained stable during the 5 months | lower than TAC | stronger affinity with the components of the upper layers of the skin compared to TAC; also recorded: higher capacity-binding to other skin proteins | No | high percentage of PIM was delivered in the stratum corneum; also recorded: higher in the viable epidermis in comparison to SIR and TAC; also recorded: significantly higher in the upper region of the skin (20–180 µm) | < 3
1200 | < 3 | CO[C@H]1C[C@@H]2CC[C@@H](C)[C@@](O)(O2)C(=O)C(=O)N2CCCC[C@H]2C(=O)O[C@H]([C@H](C)C[C@@H]2CC[C@@H](O)[C@H](OC)C2)CC(=O)[C@H](C)/C=C(\C)[C@@H](O)[C@@H](OC)C(=O)[C@H](C)C[C@H](C)/C=C/C=C/C=C/1C [SIR, sirolimus] | 147 | 1210 ± 124 (≈ 1110 µg/mL) | – | Poor | 8.24 ± 0.22 (≈ 7.53 µg/mL) | 2.5 | 4900 | became unstable after 4 months | – | – | No | – | –
– | – | C=CC[C@@H]1/C=C(\C)C[C@H](C)C[C@H](OC)[C@H]2O[C@@](O)(C(=O)C(=O)N3CCCC[C@H]3C(=O)O[C@H](/C(C)=C/[C@@H]3CC[C@@H](O)[C@H](OC)C3)[C@H](C)[C@@H](O)CC1=O)[C@H](C)C[C@@H]2OC [TAC, tacrolimus] | 3184 | 637 ± 73.5 (≈ 512 µg/mL) | 600 (≈ 482 µg/mL) | Poor | 0.2 ± 0.05 (≈ 0.161 µg/mL) | 2.9 | 5600 | remained stable during the 5 months | – | – | No | large percentage of skin deposition in the dermis | < 3
